Test results as given in patent publication US20240300987A1, “TRAP1 INHIBITOR AND USE THEREOF” (SMARTIN BIO INC., priority 2021, published 2024).

Legend:
[1] = biological target: T1, human full-length TRAP1 protein (Homo sapiens, UniProt Q12931); assay: Fluorescence polarization (FP) analysis using SB-TM2 probe (client-binding site); settings: for IC50: FP analysis using SB-TM2; for Activity compared to that of SMX: TRAP1 binding, relative to SMX of the same table
T1 construct: containing human full-length TRAP1 protein (400 nM); hexahistidine tag followed by TEV protease cleavage site (N, cleaved yes); made in house; host or cells: E. coli BL21 (DE3)
T1 sequence (Q12931 60-704): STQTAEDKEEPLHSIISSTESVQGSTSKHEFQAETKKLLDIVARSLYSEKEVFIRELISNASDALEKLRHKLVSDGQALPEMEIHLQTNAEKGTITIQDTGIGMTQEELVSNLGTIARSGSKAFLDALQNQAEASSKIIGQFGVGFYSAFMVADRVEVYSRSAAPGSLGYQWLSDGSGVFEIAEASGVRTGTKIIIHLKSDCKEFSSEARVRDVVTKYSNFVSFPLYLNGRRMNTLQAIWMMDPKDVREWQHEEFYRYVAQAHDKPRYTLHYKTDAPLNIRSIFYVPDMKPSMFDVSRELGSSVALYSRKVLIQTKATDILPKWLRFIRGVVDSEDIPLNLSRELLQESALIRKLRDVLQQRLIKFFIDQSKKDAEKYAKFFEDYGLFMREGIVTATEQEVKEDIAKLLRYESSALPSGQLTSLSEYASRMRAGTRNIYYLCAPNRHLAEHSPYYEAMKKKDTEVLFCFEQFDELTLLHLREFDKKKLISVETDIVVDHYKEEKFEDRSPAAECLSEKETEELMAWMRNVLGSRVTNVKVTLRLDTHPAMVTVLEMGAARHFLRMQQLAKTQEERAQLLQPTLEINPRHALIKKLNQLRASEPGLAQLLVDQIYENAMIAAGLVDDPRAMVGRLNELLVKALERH
Protocol: The substance to be analyzed (at a final volume of 100 μL) was added to FP buffer ([…], 2.7 mM KCl, 4.3 mM Na2HPO4, 1.4 mM KH2PO4 (pH 7.3), 1 mM DTT, 2 mM MgCl2, and 0.1 mg/mL BSA) containing human full-length TRAP1 protein (400 nM) and SB-TM2 probe (100 nM) and then reacted at room temperature for 1 hour (96-well plate). Using a SYNERGY NEO microplate reader, FP was measured at an excitation wavelength set to 440 nm and an emission wavelength set to 500 nm.

[2] = biological target: T2, TRAP1 (Homo sapiens, UniProt Q12931); assay: ATPase activity assay (PiColorLock Gold Phosphate Detection Kit); format: biochemical; design: hexahistidine tag followed by TEV protease cleavage site (N, cleaved yes); made in house; host or cells: E. coli BL21 (DE3); settings: result in words
T2 sequence (Q12931 60-704): T1 sequence (Q12931 60-704)
Protocol: The ATPase activity of TRAP1 was measured using the PiColorLock Gold Phosphate Detection Kit (Abcam). Then, 0.5 µM TRAP1 (wild-type or mutation) was pre-incubated along with inhibitors at various concentrations for 30 minutes and then incubated with 0.2 mM ATP at 37° C. for 3 hours in ATPase activity assay buffer containing 50 mM Tris-HCl, 20 mM KCl, and 6 mM MgCl (pH 7.4). Next, 20 µL of a mixture of a PiColorLock Gold reagent and an accelerator (100:1) was added to each sample (100 μL). After 5 minutes of incubation, 10 μL of a stabilizer was added to stop color development. Absorbance was measured at 620 nm using a microplate reader (Synergy NEO, BioTek). The background signal was normalized by subtracting the absorbance of unreacted samples.

[3] = tested on: HIF1α; assay: Drug activity assay using MIO-M1 HRE/GFP cell line under hypoxia; format: cell-based; settings: for IC50: MIO-M1, 24 h, HIF1α inhibitory activity in MIO-M1 cells, 1% O2 24 hours; for Activity compared to that of SMX: HIF1α inhibition, relative to SMX of the same table
Protocol: After transfection (jetPRIME kit) of MIO-M1 Müller cells with 5HRE/GFP plasmid (Addgene, #46926), the cells transfected with the plasmid were selected using 1 mg/ml of G418 (Neomycin), a selectable marker. A stable cell line was constructed by selecting cells, growing in a colony form, from single cells. The prepared MIO-M1-HRE/GFP stable cell line was dispensed into a 96-well plate and treated with drugs at different concentrations the next day. After being exposed to a hypoxic environment (1% O2) for 24 hours, the GFP (Ex/Em: 488/507) fluorescence signal was measured using a SYNERGY NEO microplate reader (BioTek Instrument). The relative fluorescence value was calculated on the basis of 100% of the negative control group.

[4] = Table 9, other synthetic compounds
[5] = Table 4, other synthetic compounds
[6] = Table 8, other synthetic compounds
[7] = Table 3, other synthetic compounds
[8] = Table 7, TPP-antioxidant conjugates
[9] = Table 2, antioxidant-TPP conjugates

Compound: CC1(C)CC(NC(=O)C[P+](c2ccccc2)(c2ccccc2)c2ccccc2)CC(C)(C)N1[O] [Mito-TEMPO, reference compound]
- TRAP1 binding capacity (competitive binding with SB-TM2, CBS of TRAP1) ([1]; result in words): do not exhibit TRAP1 binding capacity

Compound: CC(C)NCCCn1c(Sc2cc3c(cc2I)OCO3)nc2c(N)ncnc21 [PU-H71, reference compound]
- TRAP1 ATPase activity with increasing concentration [2]: ATPase activity decreased with the increasing concentration

Compound: c1ccc(CCCCCCCCCC[P+](c2ccccc2)(c2ccccc2)c2ccccc2)cc1 [SB-B001, Triphenyl(10-phenyldecyl)phosphonium]
- IC50 [3, 4]: 94.7 ± 13.2 nM
- Activity compared to that of SMX ([3]; Table 9): 2.95
- IC50 [1, 5]: 2970 ± 1050 nM
- Activity compared to that of SMX ([1]; Table 4): 0.14

Compound: c1ccc([P+](CCCCCCCCCCC2CCCCC2)(c2ccccc2)c2ccccc2)cc1 [SB-B002, (10-Cyclohexyldecyl)triphenylphosphonium chloride]
- IC50 [3, 4]: 22.3 ± 1 nM
- Activity compared to that of SMX ([3]; Table 9): 12.51

Compound: CC1=C(CCCCCCCCCC[P+](c2ccccc2)(c2ccccc2)c2ccccc2)C(=O)c2ccccc2C1=O [SB-K001, (10-(3-Methyl-1,4-dioxo-1,4-dihydronaphthalen-2-yl)decyl)triphenylphosphonium]
- IC50 [3, 4]: 55.5 ± 3.3 nM
- Activity compared to that of SMX ([3]; Table 9): 5.03
- IC50 [1, 5]: 166 ± 23 nM
- Activity compared to that of SMX ([1]; Table 4): 2.45

Compound: COc1c(Br)c(C)c(CCCCCCCCCC[P+](c2ccccc2)(c2ccccc2)c2ccccc2)c(OC)c1OC [SB-U005, (10-(3-Bromo-4,5,6-trimethoxy-2-methylphenyl)decyl)triphenylphosphonium]
- IC50 [3, 6]: 131 ± 9.1 nM
- Activity compared to that of SMX ([3]; Table 8): 3.92
- IC50 [1, 7]: 385 ± 83.5 nM

Compound: COc1c(O)c(C)c(CCCCCCCCCC[P+](c2ccccc2)(c2ccccc2)c2ccccc2)c(Br)c1OC [SB-U009, (10-(2-Bromo-5-hydroxy-3,4-dimethoxy-6-methylphenyl)decyl)triphenylphosphonium]
- IC50 [3, 6]: 191 ± 23.6 nM
- Activity compared to that of SMX ([3]; Table 8): 2.69
- IC50 [1, 7]: 909 ± 136 nM
- Activity compared to that of SMX ([1]; Table 3): 0.8701

Compound: COc1c(C)c(CCCCCCCCCC[P+](c2ccccc2)(c2ccccc2)c2ccccc2)c(Br)c(OC)c1OC [SB-U012, (10-(2-Bromo-3,4,5-trimethoxy-6-methylphenyl)decyl)triphenylphosphonium]
- IC50 [3, 6]: 177 ± 8.8 nM
- Activity compared to that of SMX ([3]; Table 8): 2.90
- IC50 [1, 7]: 601 ± 90.6 nM
- Activity compared to that of SMX ([1]; Table 3): 1.315

Compound: COc1c(C)c(CCCCCCCCCC[P+](c2ccccc2)(c2ccccc2)c2ccccc2)c(OC)c(OC)c1OC [SB-U014, Triphenyl(10-(2,3,4,5-tetramethoxy-6-methylphenyl)decyl)phosphonium]
- IC50 [3, 4]: 69.4 ± 3.1 nM
- Activity compared to that of SMX ([3]; Table 9): 4.02
- IC50 [1, 5]: 805 ± 99.4 nM

Compound: COC1=C(OC)C(=O)C(CCCCCCCCCC[P+](c2ccccc2)(c2ccccc2)c2ccccc2)=C(C)C1=O [SMX, (10-(4,5-Dimethoxy-2-methyl-3,6-dioxocyclohexadien-1-yl)decyl)triphenylphosphonium, reference compound]
- IC50 ([3]; Table 6, alkyl-TPPs): 468 ± 15.1 nM
- IC50 [3, 8]: 327 ± 22.9 nM
- IC50 [3, 6]: 514 ± 55.2 nM
- IC50 [3, 4]: 279 ± 17 nM
- Activity compared to that of SMX ([3]; Table 6): 1
- Activity compared to that of SMX ([3]; Table 7): 1
- Activity compared to that of SMX ([3]; Table 8): 1
- Activity compared to that of SMX ([3]; Table 9): 1
- IC50 ([1]; Table 1, alkyl-TPPs): 623 ± 37.5 nM
- Activity compared to that of SMX ([1]; Table 1): 1
- IC50 [1, 9]: 824 ± 51.2 nM
- Activity compared to that of SMX ([1]; Table 2): 1
- IC50 [1, 7]: 791 ± 51.2 nM
- Activity compared to that of SMX ([1]; Table 3): 1
- IC50 [1, 5]: 406 ± 38.9 nM
- Activity compared to that of SMX ([1]; Table 4): 1

Compound: CC1=C(C)C(=O)C(CCCCCCCCCC[P+](c2ccccc2)(c2ccccc2)c2ccccc2)=CC1=O [SkQ1, (10-(4,5-Dimethyl-3,6-dioxocyclohexa-1,4-diene-1-yl)decyl)triphenylphosphonium, reference compound]
- IC50 [3, 8]: 183 ± 9.1 nM
- Activity compared to that of SMX ([3]; Table 7): 1.79
- IC50 [1, 9]: 696 ± 55.4 nM

Compound: CCCCCC[P+](c1ccccc1)(c1ccccc1)c1ccccc1.[Br-] [TPP-6, hexyltriphenylphosphonium bromide, reference compound]
- IC50 ([3]; Table 6, alkyl-TPPs): 1430 nM
- Activity compared to that of SMX ([3]; Table 6): 0.33
- IC50 ([1]; Table 1, alkyl-TPPs): 18800 ± 5390 nM
- Activity compared to that of SMX ([1]; Table 1): 0.03

Compound: CCCCCCCC[P+](c1ccccc1)(c1ccccc1)c1ccccc1 [TPP-8, Octyltriphenylphosphonium]
- IC50 ([3]; Table 6, alkyl-TPPs): 643 ± 258 nM
- Activity compared to that of SMX ([3]; Table 6): 0.73
- IC50 ([1]; Table 1, alkyl-TPPs): 2570 ± 258 nM
- Activity compared to that of SMX ([1]; Table 1): 0.24
- TRAP1 binding capacity (competitive binding with SB-TM2, CBS of TRAP1) ([1]; result in words): competitive binding with SB-TM2 was confirmed to be enabled
- TRAP1 binding capacity (competitive binding with SB-TM2, CBS of TRAP1) ([1]; result in words, listed as octyl-TPP): competitive binding to SB-TM2 is confirmed to be enabled

Compound: CCCCCCCCCC[P+](c1ccccc1)(c1ccccc1)c1ccccc1 [TPP-10, Decyltriphenylphosphonium]
- IC50 ([3]; Table 6, alkyl-TPPs): 314 ± 57.8 nM
- Activity compared to that of SMX ([3]; Table 6): 1.49
- IC50 ([1]; Table 1, alkyl-TPPs): 693 ± 57.8 nM
- Activity compared to that of SMX ([1]; Table 1): 0.90

Compound: CCCCCCCCCCCC[P+](c1ccccc1)(c1ccccc1)c1ccccc1 [TPP-12, Dodecyltriphenylphosphonium]
- IC50 ([3]; Table 6, alkyl-TPPs): 111 ± 35.4 nM
- Activity compared to that of SMX ([3]; Table 6): 4.21
- IC50 ([1]; Table 1, alkyl-TPPs): 377 ± 35.4 nM
- Activity compared to that of SMX ([1]; Table 1): 1.65
- binding capacity compared to that of SMX (MitoQ) ([1]; result in words): superior to that of SMX
